Where “and” joins values, the source holds several entries; their conditions need not be identical. Equal entries are not always repeated.
What was measured:
LhgR = assay: EMSA, effect of compounds on LhgR binding to the lhgR promoter region F2; design: species or system Pseudomonas putida W619; details: 30 mM compound, 10 nM F2, 70 nM LhgR
Procedure: Electrophoretic mobility shift assays (EMSAs) were carried out using the DNA fragment (F1 or F2) and purified LhgR. The DNA fragments were first amplified by primer pairs F1-F/F1-R and F2-F/F2-R, respectively. Then, either fragment at a concentration of 10 nM DNA was incubated with LhgR (0–160 nM) in 20 μL EMSA binding buffer (10 mM Tris-HCl [pH 7.4], 50 mM KCl, 0.5 mM EDTA, 10% [vol/vol] glycerol, and 1 mM dithiothreitol [DTT]). The binding reactions were carried out at 30 °C for 30 min. Electrophoresis was performed on 6% native polyacrylamide gels at 4 °C and 170 V (constant voltage) for about 45 min, followed by staining with SYBR green I (TaKaRa, China) and photographing. Analysis of the interaction between lhgO promoter region (F1) and LHGFR was performed using the same procedure.
To characterize the effector of LhgR, purified LhgR was first incubated with L-lysine, 5-aminovalerate, glutarate, L-2-HG, D-2-HG, 2-KG, or succinate at 30 °C for 15 min, followed by incubation with the added DNA fragments at 30 °C for 30 min. The mixtures were subsequently subjected to electrophoresis.

[1] = Dose-response of purified LHGFR and its variants for L-2-HG in 50 mM Tris-HCl buffer (pH 7.4), Venus/mTFP emission ratio; type: binding
Procedure: Purified L-2-HG biosensors and different compounds were diluted by 50 mM Tris-HCl buffer (pH 7.4), mixed together in a black 96-well plate at a volume ratio of 3:1, and the fluorescence intensities were measured using an EnSight microplate reader (PerkinElmer, USA) with excitation at 430 nm, emission at 485 nm (mTFP) and 528 nm (Venus). The dose-response curves were fitted by OriginPro 2016 software (OriginLab) according to the following formula:1 R=Rmax+Rmin−Rmax/1+([L-2-HG]/Kd)^p where R, Rmin, and Rmax refer to the emission ratio of Venus to mTFP, ratio in the absence of L-2-HG, and ratio at saturation with L-2-HG, respectively. The [L-2-HG], Kd, and p refer to the L-2-HG concentration, apparent dissociation constant, and Hill slope, respectively. Emission spectra were recorded at 430 nm excitation, in steps of 2 nm. Excitation spectra were recorded using emission at 550 nm, excitation from 380 to 535 nm in steps of 2 nm.

O=C(O)CC[C@H](O)C(=O)O [L-2-HG, L-2-Hydroxyglutarate]
Effect on LhgR binding to the lhgR promoter region F2 (LhgR): prevent LhgR binding to the lhgR promoter | Emission ratio of 528/485 ([1]; For L-2-HG, 2-HG concentration 0.01, Suppl. Fig. 9c): 1.3857 and 1.387 and 1.404 | Emission ratio of 528/485 ([1]; For L-2-HG, 2-HG concentration 0.01, Suppl. Fig. 9d): 1.655 and 1.676 and 1.693 | Emission ratio of 528/485 ([1]; For L-2-HG, 2-HG concentration 0.1, Suppl. Fig. 9c): 1.381 and 1.392 and 1.391 | Emission ratio of 528/485 ([1]; For L-2-HG, 2-HG concentration 0.1, Suppl. Fig. 9d): 1.641 and 1.674 and 1.689 | Emission ratio of 528/485 ([1]; For L-2-HG, 2-HG concentration 0.2, Suppl. Fig. 9c): 1.397 and 1.394 and 1.401 | Emission ratio of 528/485 ([1]; For L-2-HG, 2-HG concentration 0.2, Suppl. Fig. 9d): 1.675 and 1.688 and 1.698 | Emission ratio of 528/485 ([1]; For L-2-HG, 2-HG concentration 1, Suppl. Fig. 9c): 1.392 and 1.412 and 1.423 | Emission ratio of 528/485 ([1]; For L-2-HG, 2-HG concentration 1, Suppl. Fig. 9d): 1.753 and 1.778 and 1.797 | Emission ratio of 528/485 ([1]; For L-2-HG, 2-HG concentration 2, Suppl. Fig. 9c): 1.425 and 1.451 and 1.463 | Emission ratio of 528/485 ([1]; For L-2-HG, 2-HG concentration 2, Suppl. Fig. 9d): 1.892 and 1.897 and 1.889 | Emission ratio of 528/485 ([1]; For L-2-HG, 2-HG concentration 10, Suppl. Fig. 9c): 1.602 and 1.628 and 1.623 | Emission ratio of 528/485 ([1]; For L-2-HG, 2-HG concentration 10, Suppl. Fig. 9d): 2.254 and 2.242 and 2.288 | Emission ratio of 528/485 ([1]; For L-2-HG, 2-HG concentration 20, Suppl. Fig. 9c): 1.712 and 1.7343 and 1.752 | Emission ratio of 528/485 ([1]; For L-2-HG, 2-HG concentration 20, Suppl. Fig. 9d): 2.359 and 2.347 and 2.363 | Emission ratio of 528/485 ([1]; For L-2-HG, 2-HG concentration 100, Suppl. Fig. 9c): 1.988 and 1.973 and 1.992 | Emission ratio of 528/485 ([1]; For L-2-HG, 2-HG concentration 100, Suppl. Fig. 9d): 2.568 and 2.652 and 2.688 | Emission ratio of 528/485 ([1]; For L-2-HG, 2-HG concentration 200, Suppl. Fig. 9c): 2.0666 and 2.05 and 2.077 | Emission ratio of 528/485 ([1]; For L-2-HG, 2-HG concentration 200, Suppl. Fig. 9d): 2.563 and 2.676 and 2.688 | Emission ratio of 528/485 ([1]; For L-2-HG, 2-HG concentration 1000, Suppl. Fig. 9c): 2.162 and 2.183 and 2.153 | Emission ratio of 528/485 ([1]; For L-2-HG, 2-HG concentration 1000, Suppl. Fig. 9d): 2.635 and 2.6341 and 2.632 | Emission ratio of 528/485 ([1]; For L-2-HG, 2-HG concentration 2000, Suppl. Fig. 9c): 2.173 and 2.178 and 2.17 | Emission ratio of 528/485 ([1]; For L-2-HG, 2-HG concentration 2000, Suppl. Fig. 9d): 2.667 and 2.655 and 2.697 | Emission ratio of 528/485 ([1]; Supplementary Fig. 6a, L-2-HG concentration 0.01): 1.3857 and 1.387 and 1.404 | Emission ratio of 528/485 ([1]; Supplementary Fig. 6a, L-2-HG concentration 0.1): 1.381 and 1.392 and 1.391 | Emission ratio of 528/485 ([1]; Supplementary Fig. 6a, L-2-HG concentration 0.2): 1.397 and 1.394 and 1.401 | Emission ratio of 528/485 ([1]; Supplementary Fig. 6a, L-2-HG concentration 1): 1.392 and 1.412 and 1.423 | Emission ratio of 528/485 ([1]; Supplementary Fig. 6a, L-2-HG concentration 2): 1.425 and 1.451 and 1.463 | Emission ratio of 528/485 ([1]; Supplementary Fig. 6a, L-2-HG concentration 10): 1.602 and 1.628 and 1.623 | Emission ratio of 528/485 ([1]; Supplementary Fig. 6a, L-2-HG concentration 20): 1.712 and 1.7343 and 1.752 | Emission ratio of 528/485 ([1]; Supplementary Fig. 6a, L-2-HG concentration 100): 1.988 and 1.973 and 1.992 | Emission ratio of 528/485 ([1]; Supplementary Fig. 6a, L-2-HG concentration 200): 2.0666 and 2.05 and 2.077 | Emission ratio of 528/485 ([1]; Supplementary Fig. 6a, L-2-HG concentration 1000): 2.162 and 2.183 and 2.153 | Emission ratio of 528/485 ([1]; Supplementary Fig. 6a, L-2-HG concentration 2000): 2.173 and 2.178 and 2.17 | Emission ratio of 528/485 ([1]; Supplementary Fig. 6b, L-2-HG concentration 0.01): 1.79 and 1.921 and 1.894 | Emission ratio of 528/485 ([1]; Supplementary Fig. 6b, L-2-HG concentration 0.1): 1.777 and 1.91 and 1.94 | Emission ratio of 528/485 ([1]; Supplementary Fig. 6b, L-2-HG concentration 1): 2.057 and 2.207 and 2.255 | Emission ratio of 528/485 ([1]; Supplementary Fig. 6b, L-2-HG concentration 2): 2.268 and 2.379 and 2.449 | Emission ratio of 528/485 ([1]; Supplementary Fig. 6b, L-2-HG concentration 10): 2.5843 and 2.787 and 2.825 | Emission ratio of 528/485 ([1]; Supplementary Fig. 6b, L-2-HG concentration 20): 2.72 and 2.88 and 2.892 | Emission ratio of 528/485 ([1]; Supplementary Fig. 6b, L-2-HG concentration 100): 2.76 and 2.892 and 2.986 | Emission ratio of 528/485 ([1]; Supplementary Fig. 6b, L-2-HG concentration 1000): 2.847 and 2.935 and 2.998 | Emission ratio of 528/485 ([1]; Supplementary Fig. 6b, L-2-HG concentration 2000): 2.912 and 2.995 and 3.032 | Emission ratio of 528/485 ([1]; Supplementary Fig. 6c, L-2-HG concentration 0.01): 1.881 and 1.865 and 1.887 | Emission ratio of 528/485 ([1]; Supplementary Fig. 6c, L-2-HG concentration 0.1): 1.869 and 1.918 and 1.908 | Emission ratio of 528/485 ([1]; Supplementary Fig. 6c, L-2-HG concentration 1): 2.144 and 2.182 and 2.149 | Emission ratio of 528/485 ([1]; Supplementary Fig. 6c, L-2-HG concentration 2): 2.3419 and 2.384 and 2.402 | Emission ratio of 528/485 ([1]; Supplementary Fig. 6c, L-2-HG concentration 10): 2.743 and 2.7667 and 2.84 | Emission ratio of 528/485 ([1]; Supplementary Fig. 6c, L-2-HG concentration 20): 2.846 and 2.91 and 2.871 | Emission ratio of 528/485 ([1]; Supplementary Fig. 6c, L-2-HG concentration 100): 2.914 and 2.957 and 2.953 | Emission ratio of 528/485 ([1]; Supplementary Fig. 6c, L-2-HG concentration 1000): 2.894 and 2.9819 and 2.963 | Emission ratio of 528/485 ([1]; Supplementary Fig. 6c, L-2-HG concentration 2000): 2.899 and 2.986 and 2.9894 | Emission ratio of 528/485 ([1]; Supplementary Fig. 6e, L-2-HG concentration 0.01): 1.655 and 1.676 and 1.693 | Emission ratio of 528/485 ([1]; Supplementary Fig. 6e, L-2-HG concentration 0.1): 1.641 and 1.674 and 1.689 | Emission ratio of 528/485 ([1]; Supplementary Fig. 6e, L-2-HG concentration 0.2): 1.675 and 1.688 and 1.698 | Emission ratio of 528/485 ([1]; Supplementary Fig. 6e, L-2-HG concentration 1): 1.753 and 1.778 and 1.797 | Emission ratio of 528/485 ([1]; Supplementary Fig. 6e, L-2-HG concentration 2): 1.892 and 1.897 and 1.889 | Emission ratio of 528/485 ([1]; Supplementary Fig. 6e, L-2-HG concentration 10): 2.254 and 2.242 and 2.288 | Emission ratio of 528/485 ([1]; Supplementary Fig. 6e, L-2-HG concentration 20): 2.359 and 2.347 and 2.363 | Emission ratio of 528/485 ([1]; Supplementary Fig. 6e, L-2-HG concentration 100): 2.568 and 2.652 and 2.688 | Emission ratio of 528/485 ([1]; Supplementary Fig. 6e, L-2-HG concentration 200): 2.563 and 2.676 and 2.688 | Emission ratio of 528/485 ([1]; Supplementary Fig. 6e, L-2-HG concentration 1000): 2.635 and 2.6341 and 2.632 | Emission ratio of 528/485 ([1]; Supplementary Fig. 6e, L-2-HG concentration 2000): 2.667 and 2.655 and 2.697 | Emission ratio of 528/485 ([1]; Supplementary Fig. 6d, L-2-HG concentration 0.01): 1.72 and 1.724 and 1.742 | Emission ratio of 528/485 ([1]; Supplementary Fig. 6d, L-2-HG concentration 0.1): 1.742 and 1.747 and 1.746 | Emission ratio of 528/485 ([1]; Supplementary Fig. 6d, L-2-HG concentration 1): 1.865 and 1.88 and 1.882 | Emission ratio of 528/485 ([1]; Supplementary Fig. 6d, L-2-HG concentration 2): 2.014 and 2.037 and 2.039 | Emission ratio of 528/485 ([1]; Supplementary Fig. 6d, L-2-HG concentration 10): 2.446 and 2.449 and 2.469 | Emission ratio of 528/485 ([1]; Supplementary Fig. 6d, L-2-HG concentration 20): 2.546 and 2.554 and 2.592 | Emission ratio of 528/485 ([1]; Supplementary Fig. 6d, L-2-HG concentration 100): 2.59 and 2.651 and 2.67 | Emission ratio of 528/485 ([1]; Supplementary Fig. 6d, L-2-HG concentration 1000): 2.653 and 2.699 and 2.7087 | Emission ratio of 528/485 ([1]; Supplementary Fig. 6d, L-2-HG concentration 2000): 2.665 and 2.7183 and 2.7325
